Reference: patent publication US20070032404A1, “Methods for treating diabetes and related disorders using pde10a inhibitors” (Bayer Pharmaceuticals Corporation, priority 2003, published 2007)

Key:
PDE3A = PDE3A (Homo sapiens, UniProt Q14432); assay: PDE3A inhibition assay (SPA, 3H-cAMP); assay type: biochemical; settings: Table 2; read-out: PDE3 IC50
Method: (§1) Test compounds and PDE10A enzyme in assay buffer are added to 96-well whitewall/clear bottom isoplates (Wallac). The reaction is initiated by the addition of ^3H-cAMP (Amersham) or ^3H-cGMP (Amersham). Following a 45-minute incubation at room temperature, the reaction is stopped by the addition of SPA yttrium silicate beads (Amersham). The samples are incubated for an additional 30 minutes, and the plates are read in the Microbeta (Wallac) for 30 seconds in the SPA mode. Data may be expressed as a percentage of control. To measure PDE2, PDE3A, PDE4B, and PDE10A activity, 3H-cAMP may be used as a substrate; and to measure PDE5 activity, 3H-cGMP may be used as a substrate.
(§2) These same compounds were run in inhibition assays for PDE2, PDE3A, PDE4B, and PDE5. […] The compounds are therefore selective for PDE10A.

PDE4B = PDE4B (Homo sapiens, UniProt Q07343); assay: PDE4B inhibition assay (SPA, 3H-cAMP); assay type: biochemical; settings: Table 2
Sequence of PDE4B (Q07343 whole entry, species assumed): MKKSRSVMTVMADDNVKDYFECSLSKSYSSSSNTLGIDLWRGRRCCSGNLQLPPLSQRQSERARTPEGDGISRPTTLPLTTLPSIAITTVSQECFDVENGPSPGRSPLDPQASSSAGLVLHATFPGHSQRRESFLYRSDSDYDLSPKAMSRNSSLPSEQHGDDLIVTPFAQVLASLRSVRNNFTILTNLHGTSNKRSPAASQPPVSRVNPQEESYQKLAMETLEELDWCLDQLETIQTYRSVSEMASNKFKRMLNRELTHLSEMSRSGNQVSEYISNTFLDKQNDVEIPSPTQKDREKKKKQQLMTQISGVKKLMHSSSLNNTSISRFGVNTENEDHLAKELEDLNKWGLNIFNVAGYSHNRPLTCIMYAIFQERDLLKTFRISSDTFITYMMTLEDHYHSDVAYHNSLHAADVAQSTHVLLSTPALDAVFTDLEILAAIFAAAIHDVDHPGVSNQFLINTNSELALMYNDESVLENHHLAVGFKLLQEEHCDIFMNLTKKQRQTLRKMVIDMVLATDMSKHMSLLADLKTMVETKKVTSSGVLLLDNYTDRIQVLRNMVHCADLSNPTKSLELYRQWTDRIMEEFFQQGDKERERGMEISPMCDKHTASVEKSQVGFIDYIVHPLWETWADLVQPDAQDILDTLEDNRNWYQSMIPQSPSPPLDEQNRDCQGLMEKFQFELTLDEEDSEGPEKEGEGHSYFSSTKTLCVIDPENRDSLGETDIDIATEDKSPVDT
Method: as §1, §2

PDE5 = PDE5 (Homo sapiens, UniProt O76074); assay: PDE5 inhibition assay (SPA, 3H-cGMP); assay type: biochemical; settings: Table 2
Method: as §1, §2

PDE10A = PDE10A (Homo sapiens, UniProt Q9Y233); assay: PDE10A inhibition assay (SPA, 3H-cAMP); assay type: biochemical; settings: Table 2
Sequence of PDE10A (Q9Y233 whole entry, species assumed): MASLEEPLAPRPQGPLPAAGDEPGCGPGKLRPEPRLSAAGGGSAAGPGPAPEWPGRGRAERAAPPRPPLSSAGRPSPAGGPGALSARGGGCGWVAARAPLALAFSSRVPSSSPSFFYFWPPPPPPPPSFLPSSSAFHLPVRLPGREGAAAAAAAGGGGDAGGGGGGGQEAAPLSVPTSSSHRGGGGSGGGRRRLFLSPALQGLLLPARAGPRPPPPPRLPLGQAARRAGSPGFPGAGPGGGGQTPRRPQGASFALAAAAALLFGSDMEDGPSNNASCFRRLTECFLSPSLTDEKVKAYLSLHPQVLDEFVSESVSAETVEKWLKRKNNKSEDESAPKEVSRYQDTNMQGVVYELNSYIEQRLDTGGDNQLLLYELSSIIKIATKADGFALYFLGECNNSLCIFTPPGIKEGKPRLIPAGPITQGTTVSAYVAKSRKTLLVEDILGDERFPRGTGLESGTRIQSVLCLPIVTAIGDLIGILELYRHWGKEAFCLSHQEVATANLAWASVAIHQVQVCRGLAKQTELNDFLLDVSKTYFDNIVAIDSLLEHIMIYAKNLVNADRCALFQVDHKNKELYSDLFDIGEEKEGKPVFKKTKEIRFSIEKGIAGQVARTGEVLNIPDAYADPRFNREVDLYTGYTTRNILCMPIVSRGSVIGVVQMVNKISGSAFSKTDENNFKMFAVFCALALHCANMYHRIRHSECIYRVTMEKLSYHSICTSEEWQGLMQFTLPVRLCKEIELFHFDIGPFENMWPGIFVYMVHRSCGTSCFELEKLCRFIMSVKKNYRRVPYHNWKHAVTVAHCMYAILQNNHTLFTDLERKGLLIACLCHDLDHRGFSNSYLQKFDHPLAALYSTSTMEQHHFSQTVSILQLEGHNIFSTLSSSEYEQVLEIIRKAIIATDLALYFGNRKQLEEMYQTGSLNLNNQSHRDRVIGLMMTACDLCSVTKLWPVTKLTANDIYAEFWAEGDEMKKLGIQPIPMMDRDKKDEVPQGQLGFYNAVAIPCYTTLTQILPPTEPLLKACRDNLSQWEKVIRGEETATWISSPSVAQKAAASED
Method: as §1

[1] = tested on: dispersed pancreatic islets; assay: Dispersed islet assay (insulin secretion); assay type: cell-based, rat; settings: 8 mM glucose, 0.3 μM forskolin, 30 minutes; control = 8 mM glucose and 0.3 μM forskolin
Method: Dispersed pancreatic islet isolation. Lean rats (male Sprague-Dawley, 200-250 g) are anesthetized with nembutal (60 mg/kg, i.p.) and the abdomen opened to expose the liver and pancreas. The pancreas is distended by injection of Hank's solution into the bile duct, and then the pancreas is excised and minced with scissors while in Hank's solution. After rinsing the tissue with buffer, the pancreas is digested for 10 minutes with collagenase, rinsed, and the islets separated from debris on a Ficoll gradient. The isolated islet fraction is then rinsed with buffer, incubated with EDTA for 8 minutes, followed by incubation with trypsin and DNAase I for an additional 10 minutes. The dispersed islets are transferred to culture media containing 8 mM glucose, seeded in “V-bottom” 96-well plates (2,500 cells per well), and cultured overnight.
For assaying insulinotropic compounds, the dispersed islets are pre-incubated in 3 mM glucose for 30 minutes. The islets are then transferred to media containing 8 mM glucose, test compounds, and 0.3 μM forskolin; and incubated for an additional 30 minutes. The media is then assayed for insulin content using, for example, a SPA assay. Insulin secretion is reported as fold over control (FOC), where the control is the amount of insulin secretion in the presence of 8 mM glucose and 0.3 μM forskolin.

PDE2 = PDE2 (Homo sapiens, UniProt O00408); assay: PDE2 inhibition assay (SPA, 3H-cAMP); assay type: biochemical; settings: Table 2
Sequence of PDE2 (O00408 whole entry): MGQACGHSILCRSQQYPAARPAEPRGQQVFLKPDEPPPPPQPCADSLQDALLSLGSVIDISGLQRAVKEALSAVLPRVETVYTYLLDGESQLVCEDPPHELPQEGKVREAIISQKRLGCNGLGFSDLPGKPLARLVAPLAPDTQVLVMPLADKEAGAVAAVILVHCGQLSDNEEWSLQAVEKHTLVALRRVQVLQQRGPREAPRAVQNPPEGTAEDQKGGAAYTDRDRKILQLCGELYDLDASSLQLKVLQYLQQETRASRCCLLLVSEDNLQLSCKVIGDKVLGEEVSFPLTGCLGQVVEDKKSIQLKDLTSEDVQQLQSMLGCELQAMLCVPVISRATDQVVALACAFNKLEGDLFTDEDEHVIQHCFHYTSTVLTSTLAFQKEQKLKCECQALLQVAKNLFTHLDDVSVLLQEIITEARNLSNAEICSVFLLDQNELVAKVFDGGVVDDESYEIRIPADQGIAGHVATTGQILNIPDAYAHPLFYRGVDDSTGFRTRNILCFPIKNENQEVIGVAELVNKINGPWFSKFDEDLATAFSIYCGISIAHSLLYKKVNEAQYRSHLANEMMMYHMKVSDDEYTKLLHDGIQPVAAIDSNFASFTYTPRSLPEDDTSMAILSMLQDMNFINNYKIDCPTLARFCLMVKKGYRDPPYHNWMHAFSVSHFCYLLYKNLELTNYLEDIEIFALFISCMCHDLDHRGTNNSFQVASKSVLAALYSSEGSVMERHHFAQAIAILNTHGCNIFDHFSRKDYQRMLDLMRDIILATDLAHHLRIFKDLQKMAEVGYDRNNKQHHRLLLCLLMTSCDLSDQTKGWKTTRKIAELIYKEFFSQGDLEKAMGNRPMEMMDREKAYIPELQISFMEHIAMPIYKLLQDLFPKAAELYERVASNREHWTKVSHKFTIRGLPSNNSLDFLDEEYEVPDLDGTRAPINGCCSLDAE
Method: as §1, §2

Sequence of PDE3A (Q14432 whole entry, species assumed): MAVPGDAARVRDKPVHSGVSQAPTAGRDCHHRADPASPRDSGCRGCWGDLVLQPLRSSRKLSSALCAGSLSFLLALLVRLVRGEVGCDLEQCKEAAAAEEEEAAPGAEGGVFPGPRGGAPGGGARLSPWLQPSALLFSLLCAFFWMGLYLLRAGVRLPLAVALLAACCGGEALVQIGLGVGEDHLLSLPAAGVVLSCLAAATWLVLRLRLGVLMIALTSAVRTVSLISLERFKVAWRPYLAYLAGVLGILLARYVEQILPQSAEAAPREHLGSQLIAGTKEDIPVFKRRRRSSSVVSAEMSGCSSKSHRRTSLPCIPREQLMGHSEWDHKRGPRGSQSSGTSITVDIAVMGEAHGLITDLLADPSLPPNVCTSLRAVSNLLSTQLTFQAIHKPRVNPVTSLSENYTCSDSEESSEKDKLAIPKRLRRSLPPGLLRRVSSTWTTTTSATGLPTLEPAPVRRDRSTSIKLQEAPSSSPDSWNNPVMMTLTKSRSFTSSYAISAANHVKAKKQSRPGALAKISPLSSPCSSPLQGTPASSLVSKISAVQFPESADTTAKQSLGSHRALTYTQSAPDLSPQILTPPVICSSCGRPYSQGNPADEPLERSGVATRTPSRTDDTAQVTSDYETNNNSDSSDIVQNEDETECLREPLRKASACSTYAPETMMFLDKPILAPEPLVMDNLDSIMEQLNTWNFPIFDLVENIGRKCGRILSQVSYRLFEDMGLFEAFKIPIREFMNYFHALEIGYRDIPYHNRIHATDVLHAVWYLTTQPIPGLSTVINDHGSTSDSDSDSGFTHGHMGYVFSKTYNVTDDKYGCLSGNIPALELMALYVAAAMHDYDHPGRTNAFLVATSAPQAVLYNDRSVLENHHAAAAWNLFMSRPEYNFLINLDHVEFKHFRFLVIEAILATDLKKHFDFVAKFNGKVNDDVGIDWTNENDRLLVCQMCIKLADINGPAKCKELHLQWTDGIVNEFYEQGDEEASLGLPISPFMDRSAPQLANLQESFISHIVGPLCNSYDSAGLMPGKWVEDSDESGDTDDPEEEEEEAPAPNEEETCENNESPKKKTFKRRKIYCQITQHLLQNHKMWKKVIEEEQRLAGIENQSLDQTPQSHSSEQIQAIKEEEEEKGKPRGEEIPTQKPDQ

IC50 (PDE3A) [µM] | IC50 (PDE4B) [µM] | IC50 (PDE5) [µM] | IC50 (PDE10A) [µM] | IC50 (PDE2) [µM] | Compound | Insulin secretion, Fold-over-Control (FOC) [1]
> 10 | > 10 | > 10 | 0.0263 | > 10 | CCOC(=O)c1c(-c2ccc(OC)c(OC)c2)c(C)n2c1-c1cc(OC)c(OC)cc1CC2 [C] | 1.48
> 10 |  |  | 0.03 |  | CCOC(=O)c1c(-c2ccc(O)c3ncccc23)c(C)n2c1-c1cc(OC)c(OC)cc1CC2 [Compound A] | 1.4
> 10 |  | > 10 | 0.0327 | > 10 | CCOC(=O)c1c(-c2ccc(OC)cc2OC)c(C)n2c1-c1cc(OC)c(OC)cc1CC2 [B] | 1.44
